Laboratory results from article PMC12112966 (2025).

What was measured:
Assay in all cases: BLI, immobilised aptamer
[1] = test system: JD-1 (DNA, aptamer) GAATGGACCCGGTATAATTCCCTCAAGAGTGCCAATTTCA; settings: 2.7 mM KCl, 1.5 mM KH2PO4, 0.1 M NaCl, 20 mM Na2HPO4, 0.6 mM MgCl2, 0.9 mM CaCl2; selection buffer, pH 7.4; BLI response below 0.1 nm
[2] = test system: JD-2 (DNA, aptamer) AAAAGACTTAGTGTTGTCCTATGTATAAGTGCCAATTTCA; settings: 2.7 mM KCl, 1.5 mM KH2PO4, 0.1 M NaCl, 20 mM Na2HPO4, 0.6 mM MgCl2, 0.9 mM CaCl2; selection buffer, pH 7.4; BLI response below 0.1 nm
[3] = test system: JD2-RM3-27C28T (DNA, aptamer) AAAAGACTTAGTGTTGTCCTATGTATCT; settings: 2.7 mM KCl, 1.5 mM KH2PO4, 0.1 M NaCl, 20 mM Na2HPO4, 0.6 mM MgCl2, 0.9 mM CaCl2; selection buffer, pH 7.4; same concentration as AZA-2
[4] = test system: JD-3 (DNA, aptamer) ACTAGTGCAAATCTATTCCTATGTTACAGTGCCAATTTCA; settings: 2.7 mM KCl, 1.5 mM KH2PO4, 0.1 M NaCl, 20 mM Na2HPO4, 0.6 mM MgCl2, 0.9 mM CaCl2; selection buffer, pH 7.4; BLI response below 0.1 nm
[5] = test system: JD3-RMM1 (DNA, aptamer) ACTAGGGCAAATCTATACAGTGCCAATTTCA; settings: 2.7 mM KCl, 1.5 mM KH2PO4, 0.1 M NaCl, 20 mM Na2HPO4, 0.6 mM MgCl2, 0.9 mM CaCl2; selection buffer, pH 7.4; same concentration as AZA-2

binding [1]: no
binding [2]: no
binding [3]: no
binding [4]: no
binding [5]: no
Compound: C=C1[C@@H](O)[C@@H]2O[C@]3(CC[C@H](/C=C/[C@@H](C)[C@@H]4CC(C)=C[C@@]5(O[C@H](C[C@@](C)(O)C(=O)O)CC[C@H]5O)O4)O3)CC[C@H]2O[C@@H]1[C@@H](O)C[C@H](C)[C@H]1O[C@@]2(CCCCO2)CC[C@H]1C
